Columns and labels:
[1] = Boiling temperature at pressure P; settings: Liquid, DSC
[2] = Crystal; DTA

Oc1ccccc1O [1,2-benzenediol]
[1]
Settings	Boiling temperature at pressure P [°C]
2.95 kPa	139.1
3.93 kPa	145.5
4.93 kPa	150.7

Oc1cccc(O)c1 [1,3-benzenediol]
[1]
Settings	Boiling temperature at pressure P [°C]
2.95 kPa	171.6
3.93 kPa	178.2
4.93 kPa	183.7

CCCCCCc1ccc(O)cc1O [1,3-dihydroxy-4-hexylbenzene]
Settings	Normal melting temperature [°C]
[2]	67.0

[1]
Settings	Boiling temperature at pressure P [°C]
1.95 kPa	201.0
2.95 kPa	211.0
3.87 kPa	218.7
5.42 kPa	227.1
7.89 kPa	238
9.9 kPa	244.6
19.83 kPa	267
29.78 kPa	281.4
49.68 kPa	301.2
69.58 kPa	315.0
79.52 kPa	321.4
100.93 kPa	332.4
198.33 kPa	364.4
223.29 kPa	371.5
250.21 kPa	378

CCCc1c(O)cccc1O [2-propylresorcinol]
Settings	Normal melting temperature [°C]
[2]	104.8

[1]
Settings	Boiling temperature at pressure P [°C]
9.92 kPa	197.5
19.83 kPa	218.2
29.79 kPa	231.6
49.69 kPa	250.2
69.61 kPa	263.2
98.91 kPa	278.0
198.31 kPa	309.6
299.37 kPa	332.2
400.46 kPa	345.8

CCc1ccc(O)cc1O [4-ethylresorcinol]
Settings	Normal melting temperature [°C]
[2]	97.2

[1]
Settings	Boiling temperature at pressure P [°C]
9.92 kPa	207.4
19.87 kPa	228.2
29.79 kPa	241.4
49.73 kPa	259.6
69.64 kPa	272.6
98.43 kPa	287.0
198.31 kPa	318.6
299.37 kPa	339.8
400.09 kPa	356.2

— the NIST ThermoML archive (doi:10.1016/j.jct.2019.03.008)
